Laboratory results as given in patent US8541575B2, “3,4-diarylpyrazoles as protein kinase inhibitors” (Nerviano Medical Sciences S.R.L., priority 2008, dated 2013).

Assays:
Type in all cases: cell-based
[1] = system: human melanoma cells A375 (with a mutated B-RAF); assay: In vitro cell proliferation assay, A375; conditions: A-375, 72 hours treatment, cellular ATP readout
Description: (§1) In Vitro Cell Proliferation Assay
(§2) Exponentially growing human melanoma cells A375 (with a mutated B-RAF) and human melanoma cells Mewo (with wild-type B-Raf) were seeded and incubated at 37° C. in a humidified 5% CO2 atmosphere. After 24 hours, scalar doses of the compound were added to the medium and cells oncubated for 72 hours. At the end of treatment, cells were washed and counted. Cell number was determined by a cellular adenosine triphosphate monitoring system. Cell proliferation was compared to control cells and the concentration inhibiting cell growth by 50% was calculated.

[2] = system: human melanoma cells Mewo (with wild-type B-Raf); assay: In vitro cell proliferation assay, Mewo; conditions: 72 hours treatment, cellular ATP readout
Description: as §1, §2

[3] = system: p-MAPK (T202/Y204) in A375 human melanoma cells, having a mutated B-RAF; assay: p-MAPK (T202/Y204) ArrayScan assay; conditions: A-375, treated 1.5 or 2 hours, p-MAPK cytoplasmatic fluorescence, read-out: Array Scan A375 IC50
Description: p-MAPK (T202/Y204) ArrayScan Assay
A375 human melanoma cells, having a mutated B-RAF, are seeded in 384-well poly-lysine coated plates (Matrix) at a density of 1000 cells/well with appropriate medium supplemented with 10% FCS and incubated for 16-24 hours. Cells are treated for 1.5 or 2 hours with increasing doses of compounds (starting dose 10 μM, dilution factor 2.5). At the end of the treatment cells are fixed with p-formaldehyde 3.7% for 15-30 min, then washed twice with D-PBS […] and permeabilized with D-PBS containing 0.1% Triton X-100 and 1% BSA (Sigma-Aldrich) for 15 minutes at room temperature (staining solution). Anti-phospho-MAPK (T202/Y204) monoclonal antibody E10 (Cell Signaling, cat. #9106) diluted 1:100 is added in staining solution and incubated for 1 hour at 37° C. After removal of the primary antibody solution, the anti-mouse Cy™2-conjugated (Green) secondary antibody (Amersham) diluted 1:500 in staining solution containing 2 μg/ml DAPI is added. The plate is incubated for 1 hour at 37° C., washed twice and then red with Cellomics' ArrayScan VTI (4 fields/well, CytoNucTrans algorithm).
The parameter “MEAN_RingAvgIntenCh2”, which measures the mean cytoplasmatic fluorescence intensity associated to p-MAPK staining, is reported as the final result.

Compound	IC50 [1] [nM]	IC50 [2] [nM]	IC50 [3] [nM]
O=S(=O)(Nc1ccc(F)c(-c2n[nH]cc2-c2ccncc2)c1F)c1ccsc1 [Cmpd. 19, Thiophene-3-sulfonic acid [2,4-difluoro-3-(4-pyridin-4-yl-1H-pyrazol-3-yl)-phenyl]-amide]	3170	> 10000	830
CCCCn1cc(-c2ccncc2)c(-c2cccc(NC(=O)Nc3ccc(C(F)(F)F)cc3)c2)n1 [compound 49, 1-[3-(1-Butyl-4-pyridin-4-yl-1H-pyrazol-3-yl)-phenyl]-3-(4-trifluoromethyl-phenyl)-urea]	2610	4540	1590
O=C(Nc1ccc(C(F)(F)F)cc1)Nc1cccc(-c2nn(CCO)cc2-c2ccncc2)c1 [Cmpd. 14, 1-{3-[1-(2-Hydroxy-ethyl)-4-pyridin-4-yl-1H-pyrazol-3-yl]-phenyl}-3-(4-trifluoromethyl-phenyl)-urea]	6940	> 10000	2630
O=C(Nc1cccc(-c2nn(CCF)cc2-c2ccncc2)c1)Nc1ccc(Cl)c(C(F)(F)F)c1 [Cmpd. 5, 1-(4-Chloro-3-trifluoromethyl-phenyl)-3-{3-[1-(2-fluoro-ethyl)-4-pyridin-4-yl-1H-pyrazol-3-yl]-phenyl}-urea]	4310	6760	2090
N#CCn1cc(-c2ccncc2)c(-c2cccc(NC(=O)Nc3ccc(C(F)(F)F)cc3)c2)n1 [compound 11, 1-[3-(1-Cyanomethyl-4-pyridin-4-yl-1H-pyrazol-3-yl)-phenyl]-3-(4-trifluoromethyl-phenyl)-urea]	1130	7690	230

The next lines start with the values.

IC50 [1] [nM]	IC50 [2] [nM]	IC50 [3] [nM]	Compound
5320	> 10000	2510	CC(=O)Nc1nccc(-c2c[nH]nc2-c2cccc(NC(=O)Nc3ccc(C(F)(F)F)cc3)c2)n1 [compound 32, N-(4-{3-[3-({[4-(trifluoromethyl)phenyl]carbamoyl}amino)phenyl]-1H-pyrazol-4-yl}pyrimidin-2-yl)acetamide]
3630	> 10000	1750	CC(C)C(=O)Nc1cc(-c2c[nH]nc2-c2cccc(NC(=O)Nc3ccc(C(F)(F)F)cc3)c2)ccn1 [compound 40, 2-methyl-N-(4-{3-[3-({[4-(trifluoromethyl)phenyl]carbamoyl}amino)phenyl]-1H-pyrazol-4-yl}pyridin-2-yl)propanamide]
1250	> 10000	170	CCNc1nccc(-c2c[nH]nc2-c2cccc(NS(=O)(=O)c3cc(F)ccc3F)c2)n1 [compound 55, N-(3-{4-[2-(ethylamino)pyrimidin-4-yl]-1H-pyrazol-3-yl}phenyl)-2,5-difluorobenzenesulfonamide]
2310	5840	1260	CC(C)(C)c1ccc(NC(=O)c2cccc(-c3n[nH]cc3-c3ccncc3)c2)cc1 [Cmpd. 4, N-(4-tert-Butyl-phenyl)-3-(4-pyridin-4-yl-1H-pyrazol-3-yl)-benzamide]
250	9400	< 40	CC(=O)Nc1cc(-c2c[nH]nc2-c2cccc(NC(=O)Nc3ccc(C(F)(F)F)cc3)c2)ccn1 [Cmpd. 17, N-[4-(3-{3-[3-(4-Trifluoromethyl-phenyl)-ureido]-phenyl}-1H-pyrazol-4-yl)-pyridin-2-yl]-acetamide]
